# Laboratory results published in US8207172B2 (Bayer Intellectual Property GmbH, priority 2004, dated 2012).
# Where a name gives a salt, the structure may show the parent alone.
# Experiments:
# [1] = system: A431 cells (human epidermoid carcinoma); test: In vitro tumor cell proliferation assay (Cell Titer-Glo luminescent cell viability), A431; type: cell-based; conditions: A-431, 72 h, 72 hours of drug exposure, ATP luminescence readout, read-out: IC50, anti-proliferative activity (inhibition of cell proliferation)
# How it was run: (§1)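 CellTiter-Glo luminescence (ATP content of metabolically active cells) after 72 h compound exposure at 37° C gave IC50s.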
# [2] = system: BT474 (human breast carcinoma); test: In vitro tumor cell proliferation assay (Cell Titer-Glo luminescent cell viability), BT474; type: cell-based; conditions: BT-474, 72 h, BT474 cells, 72 hours of drug exposure, ATP luminescence readout, read-out: IC50, anti-proliferative activity (inhibition of cell proliferation)
# How it was run: as §1
Compound,IC50 [1] [µM],IC50 [2] [µM]
"Fc1ccc(Nc2ncnc3sc4c(c23)CCc2nn(CCN3CCN(Cc5ccncc5)CC3)cc2-4)cc1Cl [Example 14, N-(3-chloro-4-fluorophenyl)-2-{2-[4-(pyridin-4-ylmethyl)piperazin-1-yl]ethyl}-4,5-dihydro-2H-pyrimido[5′,4′:4,5]thieno[2,3-e]indazol-6-amine]",≤ 5,≤ 5
"CCN(CC)CC(=O)N1CCC(n2cc3c(n2)CCc2c-3sc3ncnc(Nc4ccc(OCc5cccc(F)c5)c(Cl)c4)c23)CC1 [Example 220, N-{3-chloro-4-[(3-fluorobenzyl)oxy]phenyl}-2-{1-[(diethylamino)acetyl]piperidin-4-yl}-4,5-dihydro-2H-pyrimido[5′,4′:4,5]thieno[2,3-e]indazol-6-amine]",≤ 5,≤ 1
"COCCN1CCN(CCn2cc3c(n2)CCc2c-3sc3ncnc(Nc4ccc(OCc5cccc(F)c5)c(Cl)c4)c23)CC1 [Example 122, N-{3-chloro-4-[(3-fluorobenzyl)oxy]phenyl}-2-{2-[4-(2-methoxyethyl)piperazin-1-yl]ethyl}-4,5-dihydro-2H-pyrimido[5′,4′:4,5]thieno[2,3-e]indazol-6-amine]",≤ 5,≤ 1
"CN1CCC(Cn2cc3c(n2)CCc2c-3sc3ncnc(Nc4ccc(OCc5cccc(F)c5)c(Cl)c4)c23)CC1 [Example 236, N-{3-chloro-4-[(3-fluorobenzyl)oxy]phenyl}-2-[(1-methylpiperidin-4-yl)methyl]-4,5-dihydro-2H-pyrimido[5′,4′:4,5]thieno-[2,3-e]indazol-6-amine]",≤ 5,≤ 1
"CN1CCN(CCn2cc3c(n2)CCc2c-3sc3ncnc(Nc4ccc(OCc5ccccn5)c(Cl)c4)c23)CC1 [Example 102, N-[3-chloro-4-(pyridin-2-ylmethoxy)phenyl]-2-[2-(4-methylpiperazin-1-yl)ethyl]-4,5-dihydro-2H-pyrimido[5′,4′:4,5]thieno[2,3-e]indazol-6-amine]",≤ 5,≤ 1
"OCCNCCn1cc2c(n1)CCc1c-2sc2ncnc(Nc3ccc(F)c(Cl)c3)c12 [Example 19, 2-[(2-{6-[(3-chloro-4-fluorophenyl)amino]-4,5-dihydro-2H-pyrimido[5′,4′:4,5]thieno[2,3-e]indazol-2-yl}ethyl)amino]ethanol]",≤ 5,≤ 5
"Fc1cccc(COc2ccc(Nc3ncnc4sc5c(c34)CCc3nn(CCN4CCNCC4)cc3-5)cc2Cl)c1 [Example 176, N-{3-chloro-4-[(3-fluorobenzyl)oxy]phenyl}-2-(2-piperazin-1-ylethyl)-4,5-dihydro-2H-pyrimido[5′,4′:4,5]thieno[2,3-e]indazol-6-amine]",≤ 5,≤ 1
"CCC(CC)CN1CCC(CCn2cc3c(n2)CCc2c-3sc3ncnc(Nc4ccc(OCc5cccc(F)c5)c(Cl)c4)c23)CC1 [Example 250, N-{3-chloro-4-[(3-fluorobenzyl)oxy]phenyl}-2-{2-[1-(2-ethylbutyl)piperidin-4-yl]ethyl}-4,5-dihydro-2H-pyrimido[5′,4′:4,5]thieno[2,3-e]indazol-6-amine]",≤ 5,≤ 1
"CC[N+]1(CC)CCC(n2cc3c(n2)CCc2c-3sc3ncnc(Nc4ccc(OCc5cccc(F)c5)c(Cl)c4)c23)CC1 [Example 226, 4-[6-({3-chloro-4-[(3-fluorobenzyl)oxy]phenyl}amino)-4,5-dihydro-2H-pyrimido[5′,4′:4,5]thieno[2,3-e]indazol-2-yl]-1,1-diethylpiperidinium trifluoroacetate]",≤ 5,≤ 1
"O[C@H](CN1CCSCC1)Cn1cc2c(n1)CCc1c-2sc2ncnc(Nc3ccc(OCc4cccc(F)c4)c(Cl)c3)c12 [Example 139, (2R)-1-[6-({3-chloro-4-[(3-fluorobenzyl)oxy]phenyl}amino)-4,5-dihydro-2H-pyrimido[5′,4′:4,5]thieno[2,3-e]indazol-2-yl]-3-thiomorpholin-4-ylpropan-2-ol]",≤ 50,≤ 1

# More lines, now with the values ahead:
IC50 [1] [µM],IC50 [2] [µM],Compound
≤ 5,≤ 1,"Fc1cccc(COc2ccc(Nc3ncnc4sc5c(c34)CCc3c-5cnn3CCn3ccnc3)cc2Cl)c1 [Example 83, N-{3-chloro-4-[(3-fluorobenzyl)oxy]phenyl}-3-[2-(1H-imidazol-1-yl)ethyl]-4,5-dihydro-3H-pyrimido[5′,4′:4,5]thieno[2,3-e]indazol-6-amine]"
≤ 5,≤ 1,"CCN1CCN(C(=O)Cn2ncc3c2CCc2c-3sc3ncnc(Nc4ccc(OCc5cccc(F)c5)c(Cl)c4)c23)CC1 [Example 202, N-{3-chloro-4-[(3-fluorobenzyl)oxy]phenyl}-3-[2-(4-ethylpiperazin-1-yl)-2-oxoethyl]-4,5-dihydro-3H-pyrimido[5′,4′:4,5]thieno[2,3-e]indazol-6-amine]"
≤ 50,≤ 1,"CCCn1ncc2c1CCc1c-2sc2ncnc(Nc3ccc(OCc4cccc(F)c4)c(Cl)c3)c12 [Example 131, N-{3-chloro-4-[(3-fluorobenzyl)oxy]phenyl}-3-propyl-4,5-dihydro-3H-pyrimido[5′,4′:4,5]thieno[2,3-e]indazol-6-amine trifluoroacetate]"
≤ 5,≤ 1,"CN1CCN(C(=O)Cn2ncc3c2CCc2c-3sc3ncnc(Nc4ccc(OCc5cccc(F)c5)c(Cl)c4)c23)CC1 [Example 205, N-{3-chloro-4-[(3-fluorobenzyl)oxy]phenyl}-3-[2-(4-methylpiperazin-1-yl)-2-oxoethyl]-4,5-dihydro-3H-pyrimido[5′,4′:4,5]thieno[2,3-e]indazol-6-amine]"
≤ 50,≤ 5,"CC(C)NC[C@@H](O)Cn1ncc2c1CCc1c-2sc2ncnc(Nc3ccc(OCc4cccc(F)c4)c(Cl)c3)c12 [Example 163, (2R)-1-[6-({3-chloro-4-[(3-fluorobenzyl)oxy]phenyl}amino)-4,5-dihydro-3H-pyrimido[5′,4′:4,5]thieno[2,3-e]indazol-3-yl]-3-(isopropylamino)propan-2-ol trifluoroacetate (salt)]"
